Laboratory results: patent publication US8575183B2, “Heterocyclic compounds and their uses” (priority 2010, dated 2013)

Key:
PI3k δ = target: T1, PI3k δ (Homo sapiens, UniProt O00329); assay: biochemical; format: biochemical; conditions: read-out: PI3k δ Ki
T1 construct: Full length p110 subunits of PI3k α, β and δ; polyHis (N); made in house; host or cells: Sf9 insect cells (baculovirus)
Procedure: Full length p110 subunits of PI3k α, β and δ, N-terminally labeled with polyHis tag, were coexpressed with p85 with Baculo virus expression vectors in sf9 insect cells. P110/p85 heterodimers were purified by sequential Ni-NTA, Q-HP, Superdex-100 chromatography. Purified α, β and δ isozymes were stored at −20° C. in 20 mM Tris, pH 8, 0.2M NaCl, 50% glycerol, 5 mM DTT, 2 mM Na cholate. […] The γ isozyme was purified by sequential Ni-NTA, Superdex-200, Q-HP chromatography. The γ isozyme was stored frozen at −80° C. in NaH2PO4, pH 8, 0.2M NaCl, 1% ethylene glycol, 2 mM β-mercaptoethanol.
Phospatidyl inositol phosphoacceptor, Ptdlns(4,5)P2 P4508, was from Echelon Biosciences. […] Test compounds were dissolved in dimethyl sulfoxide and diluted with three-fold serial dilutions. The compound in DMSO (1 μL) was added per test well, and the inhibition relative to reactions containing no compound, with and without enzyme was determined. After assay incubation at rt, the reaction was stopped and residual ATP determined by addition of an equal volume of a commercial ATP bioluminescence kit (Perkin Elmer EasyLite) according to the manufacturer's instructions, and detected using a AnalystGT luminometer.

[1] = system: model of systemic lupus erythematosis; conditions: in vivo; cited from earlier work
[2] = system: mouse model of rheumatoid arthritis; conditions: in vivo; cited from earlier work
p110δ = p110δ (Homo sapiens, UniProt O00329); conditions: cited from earlier work
murine model of asthma = conditions: ovalbumin-induced airway inflammation; cited from earlier work
protein kinases = conditions: cited from earlier work
P110β = P110β (Homo sapiens, UniProt P42338); conditions: cited from earlier work
[3] = system: Class I PI3 kinase isoforms; conditions: cited from earlier work

T1 sequence (O00329 whole entry): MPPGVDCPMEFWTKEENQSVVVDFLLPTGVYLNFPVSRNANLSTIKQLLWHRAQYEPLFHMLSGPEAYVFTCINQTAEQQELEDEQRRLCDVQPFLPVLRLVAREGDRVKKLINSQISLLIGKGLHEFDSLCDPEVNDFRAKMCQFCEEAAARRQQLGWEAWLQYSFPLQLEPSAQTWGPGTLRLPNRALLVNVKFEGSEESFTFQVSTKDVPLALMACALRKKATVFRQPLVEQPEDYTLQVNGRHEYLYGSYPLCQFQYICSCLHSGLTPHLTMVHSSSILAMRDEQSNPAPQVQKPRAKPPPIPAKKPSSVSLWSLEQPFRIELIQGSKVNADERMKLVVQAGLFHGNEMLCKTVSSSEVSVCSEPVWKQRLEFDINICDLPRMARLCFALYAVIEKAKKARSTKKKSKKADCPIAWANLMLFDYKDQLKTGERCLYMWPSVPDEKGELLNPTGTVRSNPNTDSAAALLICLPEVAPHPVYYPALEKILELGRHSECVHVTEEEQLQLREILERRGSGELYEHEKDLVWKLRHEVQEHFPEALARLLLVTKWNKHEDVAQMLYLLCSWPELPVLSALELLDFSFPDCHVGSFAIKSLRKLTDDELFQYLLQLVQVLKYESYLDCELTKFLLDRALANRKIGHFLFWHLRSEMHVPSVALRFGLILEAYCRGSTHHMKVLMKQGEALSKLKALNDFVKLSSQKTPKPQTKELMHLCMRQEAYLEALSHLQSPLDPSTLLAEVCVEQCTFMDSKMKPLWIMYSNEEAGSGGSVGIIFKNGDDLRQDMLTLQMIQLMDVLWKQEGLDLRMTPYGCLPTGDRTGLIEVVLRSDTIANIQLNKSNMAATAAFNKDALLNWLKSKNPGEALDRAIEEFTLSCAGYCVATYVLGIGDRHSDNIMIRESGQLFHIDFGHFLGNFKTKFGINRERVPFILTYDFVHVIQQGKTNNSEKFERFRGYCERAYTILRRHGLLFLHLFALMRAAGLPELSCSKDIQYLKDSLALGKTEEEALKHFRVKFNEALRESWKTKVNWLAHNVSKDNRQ
T1 sequence (P27986 whole entry partner): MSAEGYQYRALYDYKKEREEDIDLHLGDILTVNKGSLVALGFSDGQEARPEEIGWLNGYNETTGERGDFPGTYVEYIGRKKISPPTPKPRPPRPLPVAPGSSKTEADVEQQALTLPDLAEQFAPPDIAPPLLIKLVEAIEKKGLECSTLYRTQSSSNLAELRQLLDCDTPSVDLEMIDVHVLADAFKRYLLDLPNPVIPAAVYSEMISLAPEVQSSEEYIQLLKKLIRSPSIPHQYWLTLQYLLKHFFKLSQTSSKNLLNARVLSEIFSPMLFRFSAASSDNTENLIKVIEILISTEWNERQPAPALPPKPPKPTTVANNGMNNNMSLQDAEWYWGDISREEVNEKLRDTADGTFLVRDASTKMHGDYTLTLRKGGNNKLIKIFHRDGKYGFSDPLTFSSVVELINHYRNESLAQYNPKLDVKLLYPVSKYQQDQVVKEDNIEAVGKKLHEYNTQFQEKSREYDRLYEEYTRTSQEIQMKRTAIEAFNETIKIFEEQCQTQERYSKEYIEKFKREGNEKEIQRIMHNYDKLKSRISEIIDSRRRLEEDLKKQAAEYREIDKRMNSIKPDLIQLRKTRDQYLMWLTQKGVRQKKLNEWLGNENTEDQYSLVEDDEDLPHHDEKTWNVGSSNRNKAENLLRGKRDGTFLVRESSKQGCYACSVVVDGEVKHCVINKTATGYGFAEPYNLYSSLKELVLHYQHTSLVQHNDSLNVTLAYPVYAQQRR
Chain of P110β (P42338 whole entry, canonical isoform): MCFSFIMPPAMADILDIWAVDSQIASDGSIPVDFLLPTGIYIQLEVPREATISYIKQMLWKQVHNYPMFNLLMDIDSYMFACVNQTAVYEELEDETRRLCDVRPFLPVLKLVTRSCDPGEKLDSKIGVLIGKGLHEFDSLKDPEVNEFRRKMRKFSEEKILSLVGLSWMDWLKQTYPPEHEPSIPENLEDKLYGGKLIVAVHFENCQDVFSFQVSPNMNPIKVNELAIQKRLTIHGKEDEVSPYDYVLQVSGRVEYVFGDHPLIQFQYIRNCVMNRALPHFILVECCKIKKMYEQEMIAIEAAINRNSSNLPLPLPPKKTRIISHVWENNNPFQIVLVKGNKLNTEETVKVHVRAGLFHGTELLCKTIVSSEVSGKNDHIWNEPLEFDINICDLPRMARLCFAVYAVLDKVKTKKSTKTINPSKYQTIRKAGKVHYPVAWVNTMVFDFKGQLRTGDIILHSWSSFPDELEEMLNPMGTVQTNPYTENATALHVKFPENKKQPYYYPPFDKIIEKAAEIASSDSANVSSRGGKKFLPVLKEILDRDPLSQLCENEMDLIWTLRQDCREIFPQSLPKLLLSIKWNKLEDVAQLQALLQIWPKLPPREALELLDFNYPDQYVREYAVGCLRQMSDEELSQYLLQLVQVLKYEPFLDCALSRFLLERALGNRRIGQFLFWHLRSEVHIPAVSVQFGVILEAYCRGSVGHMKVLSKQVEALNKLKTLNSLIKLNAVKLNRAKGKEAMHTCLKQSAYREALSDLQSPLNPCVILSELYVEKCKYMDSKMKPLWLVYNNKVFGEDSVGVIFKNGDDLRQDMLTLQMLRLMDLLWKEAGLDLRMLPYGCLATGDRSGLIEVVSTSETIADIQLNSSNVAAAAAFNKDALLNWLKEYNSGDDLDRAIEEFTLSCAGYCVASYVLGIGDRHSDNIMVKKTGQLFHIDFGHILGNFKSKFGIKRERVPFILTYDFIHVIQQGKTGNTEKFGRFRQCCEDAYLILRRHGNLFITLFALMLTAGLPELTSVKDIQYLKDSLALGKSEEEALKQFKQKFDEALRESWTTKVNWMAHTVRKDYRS
Chain of P110β (P27986 whole entry partner, canonical isoform): as the sequence (P27986 whole entry partner) above
Chain of p110δ (O00329 whole entry): as the sequence (O00329 whole entry) above
Chain of p110δ (P27986 whole entry partner): as the sequence (P27986 whole entry partner) above

Structure (SMILES)	Ki (PI3k δ)	further results
C[C@H](Nc1ncnc(N)c1C#N)c1nc2cccc(Br)c2n1-c1cncc(F)c1 [4-amino-6-(((1S)-1-(7-bromo-1-(5-fluoro-3-pyridinyl)-1H-benzimidazol-2-yl)ethyl)amino)-5-pyrimidinecarbonitrile]	48.1 nM	
C[C@H](Nc1ncnc(N)c1C#N)c1nc2cccc(F)c2[nH]1 [4-amino-6-(((1S)-1-(7-fluoro-1H-benzimidazol-2-yl)ethyl)amino)-5-pyrimidinecarbonitrile]	173 nM	
N#Cc1c(N)ncnc1NCc1nc2c(Cl)cccn2c1-c1ccccc1 [4-amino-6-(((8-chloro-3-phenylimidazo[1,2-a]pyridin-2-yl)methyl)amino)-5-pyrimidinecarbonitrile]	230 nM	
O=C1NC(=O)/C(=C\c2ccc3nccnc3c2)S1 [AS 605240]		onset of disease in a model of systemic lupus erythematosis [1]: delay onset of disease; efficacy in a mouse model of rheumatoid arthritis [2]: efficacious
Cc1ccccc1-n1c(Cn2cnc3c(N)ncnc32)nc2cccc(C)c2c1=O [IC87114]		inhibition of p110δ (p110δ): high nanomolar range (triple digit); inflammation and disease in a murine model of asthma (murine model of asthma): significantly ameliorate inflammation and disease; activity against any protein kinases tested (protein kinases): no activity
C[C@@H](Nc1ncnc(N)c1C#N)c1nc2ccc(F)cc2n1-c1cncc(NS(C)(=O)=O)c1 [N-(5-(2-((1R)-1-((6-amino-5-cyano-4-pyrimidinyl)amino)ethyl)-6-fluoro-1H-benzimidazol-1-yl)-3-pyridinyl)methanesulfonamide]	600 nM	
C[C@H](Nc1ncnc(N)c1C#N)c1nc2ccc(F)cc2n1-c1cncc(NS(C)(=O)=O)c1 [N-(5-(2-((1S)-1-((6-amino-5-cyano-4-pyrimidinyl)amino)ethyl)-6-fluoro-1H-benzimidazol-1-yl)-3-pyridinyl)methanesulfonamide]	11.9 nM	
CC[C@H](Nc1ncnc2[nH]cnc12)c1nc2cccc(C(F)(F)F)c2n1CC1CC1 [N-((1S)-1-(1-(cyclopropylmethyl)-7-(trifluoromethyl)-1H-benzimidazol-2-yl)propyl)-9H-purin-6-amine]	100 nM	
C[C@H](Nc1ncnc2[nH]cnc12)c1nc2ccc(Cl)cc2n1-c1cc(F)cc(F)c1 [N-((1S)-1-(6-chloro-1-(3,5-difluorophenyl)-1H-benzimidazol-2-yl)ethyl)-9H-purin-6-amine]	8.4 nM	
C[C@H](Nc1ncnc2[nH]cnc12)c1nc2ccc(F)cc2n1-c1cccc(F)c1 [N-((1S)-1-(6-fluoro-1-(3-fluorophenyl)-1H-benzimidazol-2-yl)ethyl)-9H-purin-6-amine]	2.7 nM	
C[C@H](Nc1ncnc2[nH]cnc12)c1nc2ccc(F)cc2n1-c1cncc(F)c1 [N-((1S)-1-(6-fluoro-1-(5-fluoro-3-pyridinyl)-1H-benzimidazol-2-yl)ethyl)-9H-purin-6-amine]	3.77 nM	
C[C@H](Nc1ncnc2[nH]cnc12)c1nc2cccc(F)c2[nH]1 [N-((1S)-1-(7-fluoro-1H-benzimidazol-2-yl)ethyl)-9H-purin-6-amine]	650 nM	
Cc1cc(C(C)Nc2ccccc2)c2nc(N3CCOCC3)cc(=O)n2c1 (stereo not drawn) [TGX-221]		potency on beta (P110β): 7 nM; selectivity over delta ([3]; beta over delta): 14 fold; selectivity over gamma and alpha ([3]; beta over gamma and alpha): more than 500 fold
COC(=O)c1cccc2nc([C@H](C)Nc3ncnc(N)c3C#N)c(-c3cccnc3)n12 [methyl 2-((1S)-1-((6-amino-5-cyano-4-pyrimidinyl)amino)ethyl)-3-(3-pyridinyl)imidazo[1,2-a]pyridine-5-carboxylate]	147 nM	
COC(=O)c1cccc2nc([C@H](C)Nc3ncnc(N)c3C#N)c(-c3cncc(F)c3)n12 [methyl 2-((1S)-1-((6-amino-5-cyano-4-pyrimidinyl)amino)ethyl)-3-(5-fluoro-3-pyridinyl)imidazo[1,2-a]pyridine-5-carboxylate]	314 nM	
COC(=O)c1cccc2nc([C@H](C)Nc3ncnc(N)c3C#N)c(-c3ccccc3)n12 [methyl 2-((1S)-1-((6-amino-5-cyano-4-pyrimidinyl)amino)ethyl)-3-phenylimidazo[1,2-a]pyridine-5-carboxylate]	39 nM	
